{"source": "patent US11504396B2", "about": "(NKMAX Co., Ltd., priority 2016, dated 2022)", "key": {"[1]": {"tested_on": "HL-60 (acute promyelocytic leukemia) cells", "assay": "Cytotoxicity of NK cells to leukemia cells (HL-60)", "format": "cell-based", "conditions": "NK cells treated with ponatinib 500 nM for 6 hrs, co-cultured 48 hours", "description": "(§1) IL-2 is a well-known activator of effector cells such as NK cells."}, "[2]": {"tested_on": "Huh-7.5 (hepatic cell line showing subgenomic and genomic hepatitis C virus RNA replication)", "assay": "Cytotoxicity of NK cells to virus-transformed cell lines (Huh-7.5)", "conditions": "NK cells treated with ponatinib 150 nM for 16 hours, co-cultured 48 hours"}, "[3]": {"tested_on": "SNU-245, the biliary tract cancer cell line", "assay": "4 hr cytotoxic activity assay of pretreated NK cells against SNU-245", "format": "cell-based, human", "conditions": "FIG. 4; ponatinib 150 nM 24 hrs, washed; E:T 3:1, 1:1, 0.3:1 for 4 hrs", "description": "(§2) NK cells (effector cells) were co-cultured with cancer cells (target cells; SNU-245 and AGS cells) at the effector-to-target (E:T) cell count ratio (3:1, 1:1, 0.3:1) for 4 hrs."}, "[4]": {"tested_on": "MIA PaCa-2 (pancreatic cancer) cells", "assay": "Cytotoxicity of NK cells to solid tumor cells (MIA PaCa-2)", "format": "cell-based", "conditions": "NK cells treated with 200 nM Ponatinib for 6 hrs, co-cultured 48 hrs"}, "[5]": {"tested_on": "HepG2.2.15 (hepatic cell transformed with hepatitis B virus and producing HBV)", "assay": "Cytotoxicity of NK cells to virus-transformed cell lines (HepG2.2.15)", "conditions": "NK cells treated with ponatinib 150 nM for 16 hours, co-cultured 48 hours"}, "[6]": {"tested_on": "MDA-MB-231 (breast cancer) cells", "assay": "Cytotoxicity of NK cells to solid tumor cells (MDA-MB-231)", "format": "cell-based", "conditions": "NK cells treated with 50 nM Ponatinib for 6 hrs, co-cultured 48 hrs"}, "[7]": {"tested_on": "THP-1 (acute monocyte leukemia) cells", "assay": "Cytotoxicity of NK cells to leukemia cells (THP-1)", "format": "cell-based", "conditions": "NK cells treated with ponatinib 500 nM for 6 hrs, co-cultured 48 hours", "description": "as §1"}, "NK cells": {"tested_on": "NK cells", "assay": "Annexin V/7-AAD analysis of NK cells co-cultured with K562 cells", "format": "cell-based", "conditions": "FIG. 11; ponatinib 150 nM 24 hrs, then K562 cells E:T 5:1 for 4 hrs; vs untreated cells", "protocol": "After incubation, NK cells were collected and analyzed for cell death by annexin-V and 7-AAD analysis."}, "[8]": {"tested_on": "KG-1 (acute myelogenous leukemia) cells", "assay": "Cytotoxicity of NK cells to leukemia cells (KG-1)", "format": "cell-based", "conditions": "NK cells treated with ponatinib 500 nM for 6 hrs, co-cultured 48 hours", "description": "as §1"}, "human NK cells [9]": {"tested_on": "human NK cells", "conditions": "FIG. 9; NK cells treated with ponatinib 50 or 150 nM 24 hrs, tail vein, one day after injection; vs non-treated NK cells"}, "[10]": {"tested_on": "AGS, the stomach cancer cell line", "assay": "4 hr cytotoxic activity assay of pretreated NK cells against AGS", "format": "cell-based, human", "conditions": "FIG. 4; ponatinib 150 nM 24 hrs, washed; E:T 3:1, 1:1, 0.3:1 for 4 hrs", "description": "as §2"}, "[11]": {"tested_on": "SNU-245 (the biliary tract cancer cell line)", "assay": "2 day cytotoxicity assay against SNU-245 cells (pretreated or formulated NK cells, or ponatinib alone)"}, "human NK cells [12]": {"tested_on": "human NK cells", "assay": "NK cell cycle analysis by propidium iodide staining and flow cytometry", "conditions": "FIG. 12; ponatinib 150 nM for 2 days; vs control NK cells"}, "[13]": {"tested_on": "AGS (the stomach cancer cell line)"}, "[14]": {"tested_on": "MDA-MB-231 (the breast cancer cell line)"}, "[15]": {"tested_on": "SNU-387 (the liver cancer cell line)", "assay": "2 day cytotoxicity assay of kinase inhibitor pretreated NK cells against SNU-387", "conditions": "FIG. 7B; pretreatment 24 hrs; E:T 0.5:1, 48 hrs"}, "[16]": {"conditions": "FIG. 8, ponatinib 150 nM 24 hrs, washed, E:T 0.5:1 for 2 days"}, "[17]": {"conditions": "FIG. 8, ponatinib added to target cells without NK cells, 2 days"}, "[18]": {"conditions": "FIG. 5, high concentrations of ponatinib, 24 hrs, E:T 0.5:1 for 2 days"}}}
{"smiles": "Cc1ccc(C(=O)Nc2ccc(CN3CCN(C)CC3)c(C(F)(F)F)c2)cc1C#Cc1cnc2cccnn12", "note": "[Ponatinib, 3-(2-imidazo[1,2-b]pyridazin-3-ylethynyl)-4-methyl-N-[4-[(4-methylpiperazin-1-yl)methyl]-3-(trifluoromethyl)phenyl]benzamide]", "values": [{"measurement": "Cytotoxicity of NK Cells to HL-60 Cells", "setting": "[1]; E:T = 0.1:1, With IL-2", "result": "76 ± 9", "unit": "%"}, {"measurement": "Cytotoxicity of NK Cells to HL-60 Cells", "setting": "[1]; E:T = 0.1:1, Without IL-2", "result": "13 ± 3", "unit": "%"}, {"measurement": "Cytotoxicity of NK Cells to HL-60 Cells", "setting": "[1]; E:T = 1:1, With IL-2", "result": "98 ± 2", "unit": "%"}, {"measurement": "Cytotoxicity of NK Cells to HL-60 Cells", "setting": "[1]; E:T = 1:1, Without IL-2", "result": "89 ± 4", "unit": "%"}, {"measurement": "Cytotoxicity of NK Cells to Hur-7.5 Cells", "setting": "[2]; E:T = 0.1:1, W/IL-2", "result": 76, "unit": "%"}, {"measurement": "Cytotoxicity of NK Cells to Hur-7.5 Cells", "setting": "[2]; E:T = 0.1:1, W/O IL-2", "result": 48, "unit": "%"}, {"measurement": "Cytotoxicity of NK Cells to Hur-7.5 Cells", "setting": "[2]; E:T = 0.5:1, W/IL-2", "result": 96, "unit": "%"}, {"measurement": "Cytotoxicity of NK Cells to Hur-7.5 Cells", "setting": "[2]; E:T = 0.5:1, W/O IL-2", "result": 78, "unit": "%"}, {"measurement": "cytotoxic activity of pretreated NK cells against SNU-245", "setting": "[3]", "result": "strongly enhanced cytotoxicity"}, {"measurement": "Cytotoxicity of NK Cells to MIA PaCa-2 Cells", "setting": "[4]; E:T = 0.1:1, With IL-2", "result": "66 ± 5", "unit": "%"}, {"measurement": "Cytotoxicity of NK Cells to MIA PaCa-2 Cells", "setting": "[4]; E:T = 0.1:1, Without IL-2", "result": "43 ± 8", "unit": "%"}, {"measurement": "Cytotoxicity of NK Cells to MIA PaCa-2 Cells", "setting": "[4]; E:T = 0.5:1, With IL-2", "result": "100 ± 0", "unit": "%"}, {"measurement": "Cytotoxicity of NK Cells to MIA PaCa-2 Cells", "setting": "[4]; E:T = 0.5:1, Without IL-2", "result": "78 ± 2", "unit": "%"}, {"measurement": "Cytotoxicity of NK Cells to HepG2.2.15 Cells", "setting": "[5]; E:T = 0.1:1, With IL-2", "result": 75, "unit": "%"}, {"measurement": "Cytotoxicity of NK Cells to HepG2.2.15 Cells", "setting": "[5]; E:T = 0.1:1, Without IL-2", "result": 59, "unit": "%"}, {"measurement": "Cytotoxicity of NK Cells to HepG2.2.15 Cells", "setting": "[5]; E:T = 0.5:1, With IL-2", "result": 88, "unit": "%"}, {"measurement": "Cytotoxicity of NK Cells to HepG2.2.15 Cells", "setting": "[5]; E:T = 0.5:1, Without IL-2", "result": 74, "unit": "%"}, {"measurement": "Cytotoxicity of NK Cells to MDA-MB-231 Cells", "setting": "[6]; E:T = 0.1:1, With IL-2", "result": "28 ± 5", "unit": "%"}, {"measurement": "Cytotoxicity of NK Cells to MDA-MB-231 Cells", "setting": "[6]; E:T = 0.1:1, Without IL-2", "result": "34 ± 4", "unit": "%"}, {"measurement": "Cytotoxicity of NK Cells to MDA-MB-231 Cells", "setting": "[6]; E:T = 0.5:1, With IL-2", "result": "59 ± 8", "unit": "%"}, {"measurement": "Cytotoxicity of NK Cells to MDA-MB-231 Cells", "setting": "[6]; E:T = 0.5:1, Without IL-2", "result": "54 ± 8", "unit": "%"}, {"measurement": "Cytotoxicity of NK Cells to THP-1 Cells", "setting": "[7]; E:T = 0.1:1, With IL-2", "result": "79 ± 4", "unit": "%"}, {"measurement": "Cytotoxicity of NK Cells to THP-1 Cells", "setting": "[7]; E:T = 0.1:1, Without IL-2", "result": "20 ± 1", "unit": "%"}, {"measurement": "Cytotoxicity of NK Cells to THP-1 Cells", "setting": "[7]; E:T = 1:1, With IL-2", "result": "99 ± 0", "unit": "%"}, {"measurement": "Cytotoxicity of NK Cells to THP-1 Cells", "setting": "[7]; E:T = 1:1, Without IL-2", "result": "83 ± 1", "unit": "%"}, {"measurement": "apoptotic NK cell population (Annexin V+/7-AAD− and Annexin V+/7-AAD+)", "setting": "NK cells", "result": "significantly reduced"}, {"measurement": "necrotic NK cell population (Annexin V−/7-AAD+)", "setting": "NK cells", "result": "significantly reduced"}, {"measurement": "Cytotoxicity of NK Cells to KG-1 Cells", "setting": "[8]; E:T = 0.1:1, With IL-2", "result": "93 ± 1", "unit": "%"}, {"measurement": "Cytotoxicity of NK Cells to KG-1 Cells", "setting": "[8]; E:T = 0.1:1, Without IL-2", "result": "81 ± 1", "unit": "%"}, {"measurement": "Cytotoxicity of NK Cells to KG-1 Cells", "setting": "[8]; E:T = 1:1, With IL-2", "result": "99 ± 1", "unit": "%"}, {"measurement": "Cytotoxicity of NK Cells to KG-1 Cells", "setting": "[8]; E:T = 1:1, Without IL-2", "result": "99 ± 1", "unit": "%"}, {"measurement": "total human NK cells in blood of injected mice", "setting": "human NK cells [9]", "result": "more human NK cells"}, {"measurement": "viability of human NK cells in blood of injected mice", "setting": "human NK cells [9]", "result": "higher viability"}, {"measurement": "cytotoxic activity of pretreated NK cells against AGS", "setting": "[10]", "result": "strongly enhanced cytotoxicity"}, {"measurement": "anti-cancer cytotoxicity of kinase inhibitor pretreated NK cells against SNU-245 vs untreated NK cells", "setting": "[11]; FIG. 7A, pretreatment 24 hrs, E:T 0.5:1, 48 hrs", "result": "higher anti-cancer cytotoxicity"}, {"measurement": "viability of SNU-245 cancer cells co-cultured with NK cells pretreated with ponatinib", "setting": "[11]; [16]", "result": "significantly decreased"}, {"measurement": "cytotoxic activity of ponatinib treatment alone against SNU-245", "setting": "[11]; [17]", "result": "did not show cytotoxic activity"}, {"measurement": "fraction of G0/G1 phases of NK cells", "setting": "human NK cells [12]", "result": "concomitant decrease"}, {"measurement": "fraction of S and G2/M phases of NK cells", "setting": "human NK cells [12]", "result": "increased"}, {"measurement": "cytotoxic activity of ponatinib-pretreated NK cells against AGS", "setting": "[13]; [18]", "result": "decreased"}, {"measurement": "viability of AGS cancer cells co-cultured with NK cells pretreated with ponatinib", "setting": "[13]; [16]", "result": "significantly decreased"}, {"measurement": "cytotoxic activity of ponatinib treatment alone against AGS", "setting": "[13]; [17]", "result": "did not show cytotoxic activity"}, {"measurement": "cytotoxic activity of ponatinib-pretreated NK cells against MDA-MB-231", "setting": "[14]; [18]", "result": "decreased"}, {"measurement": "viability of MDA-MB-231 cancer cells co-cultured with NK cells pretreated with ponatinib", "setting": "[14]; [16]", "result": "significantly decreased"}, {"measurement": "cytotoxic activity of ponatinib treatment alone against MDA-MB-231", "setting": "[14]; [17]", "result": "did not show cytotoxic activity"}, {"measurement": "anti-cancer cytotoxicity of kinase inhibitor pretreated NK cells against SNU-387 vs untreated NK cells", "setting": "[15]", "result": "higher anti-cancer cytotoxicity"}]}
